Reference: US20090192123A1, “Use of dipyridamole or mopidamole for treatment and prevention of thrombo-embolic diseases and disorders caused by excessive formation of Thrombin and/or by elevated expression of Thrombin receptors” (BOEHRINGER INGELHEIM INTERNATIONAL GMBH, priority 2003, published 2009)

Assays:
[1] = system: Thrombin receptor (PAR-1); assay: Thrombin receptor (PAR-1) expression on platelets of post-stroke patients during treatment, flow cytometry with antibodies; format: in vivo, human; details: for Thrombin receptor (PAR-1) SPAN 12 (intact receptor) / Thrombin receptor (PAR-1) WEDE 15 (cleaved receptor): platelets of stroke patients, relative number, mean ± SD; for Change of intact (complete) and cleaved Thrombin receptor expression on platelets, in words: stroke patients, course of treatment of 30 days / one month, platelets ex vivo
Protocol: In order to study the inhibition of Thrombin receptor expression, patients surviving a stroke have been treated with conventional antiplatelet therapy (oral ASA) or a combination of Dipyridamole and ASA (Aggrenox) and thrombin receptor expression was measured during the course of treatment of one month. The expression of the complete as well as the cleaved Thrombin receptor was measured by flow cytometry using well established antibody technology on platelets after venipuncture.
Inhibition of Thrombin Receptor Expression in Platelets—by the Dipyridamole
Table 1 represents the mean and standard deviation of the relative numbers of expressed intact as well as cleaved Thrombin receptors on platelets over time after initiation of treatment with either ASA or the combination of Dipyridamole and ASA.

[2] = ESPS-2 clinical study, compared with low-dose aspirin / aspirin alone; cited from earlier work
[3] = Baseline (n = 15), flow cytometry

SMILES	Thrombin receptor (PAR-1) SPAN 12 (intact receptor) ([1]; 24 hr of treatment (n = 15))	Thrombin receptor (PAR-1) WEDE 15 (cleaved receptor) ([1]; 24 hr of treatment (n = 15))	Thrombin receptor (PAR-1) SPAN 12 (intact receptor) ([1]; 3 days of treatment (n = 15))	Thrombin receptor (PAR-1) WEDE 15 (cleaved receptor) ([1]; 3 days of treatment (n = 15))	Thrombin receptor (PAR-1) SPAN 12 (intact receptor) ([1]; 7 days of treatment (n = 15))	Thrombin receptor (PAR-1) WEDE 15 (cleaved receptor) ([1]; 7 days of treatment (n = 15))	Thrombin receptor (PAR-1) SPAN 12 (intact receptor) ([1]; 15 days of treatment (n = 14))	Thrombin receptor (PAR-1) WEDE 15 (cleaved receptor) ([1]; 15 days of treatment (n = 14))	Thrombin receptor (PAR-1) SPAN 12 (intact receptor) ([1]; 30 days of treatment (n = 12))	Thrombin receptor (PAR-1) WEDE 15 (cleaved receptor) ([1]; 30 days of treatment (n = 12))	Thrombin receptor (PAR-1) SPAN 12 (intact receptor) [1, 3]	Thrombin receptor (PAR-1) WEDE 15 (cleaved receptor) [1, 3]	Change of intact (complete) and cleaved Thrombin receptor expression on platelets, in words [1]	Reduction of stroke risk, in words [2]
CC(=O)Oc1ccccc1C(=O)O [ASA, acetylsalicalic acid]	37 ± 7	21.9 ± 4.6	28 ± 9	15.3 ± 3.3	24 ± 5	17.1 ± 6.1	26 ± 4.*	16.9 ± 7.5	22 ± 7	14.2 ± 5.0	34 ± 7	21.0 ± 5.3	mild reduction	–
OCCN(CCO)c1nc(N2CCCCC2)c2nc(N(CCO)CCO)nc(N3CCCCC3)c2n1 [Dipyridamole, 2,6-bis(diethanolamino)-4,8-dipiperidino-pyrimido[5,4-d]pyrimidine]	–	–	–	–	–	–	–	–	–	–	–	–	significant reduction	as effective as low-dose aspirin
